In US6939863B2, “Prevention of atherosclerosis and restenosis” (priority 2002, dated 2005):
Entries after “also recorded” stand apart in the source; their conditions may differ.

Key:
[1] = Rabbit 12-week study: body weight, chow and water consumption, serum lipids, thyroid hormone index, blood counts, arterial pressure, heart rate; details: for Weight at sacrifice / Chow consumption: 12 weeks; for Chow consumption / Water consumption: mean ± SD
[2] = test system: human endothelial cells from umbilical veins; assay: cells
Protocol: (§1) Rat vascular smooth muscle cells (VSMCs) (passages 5-10) were prepared from Sprague-Dawley rats and cultured in Dulbecco's modified Eagle's medium (DMEM) supplemented with 10% fetal bovine serum (FBS) as previously described (Kirschenlohr et al, in “Human Cell Culture Protocols”, New Jersey, Humana Press Inc, 1996, pp. 318-335). Human endothelial cells from umbilical veins were prepared as described (Morgan, in “Human Cell Culture Protocols”, New Jersey, Humana Press Inc, 1996, pp. 101-152)
(§2) Rat vascular smooth muscle cells and human endothelial cells were plated at a density of 10,000 cells per square centimeter in 24-well plates. After 24 hours, cells at 70-80% confluency were treated with propylthiouracil dissolved in 100% dimethylsulfoxide (DMSO) at final concentrations of from 0.05 millimolar to 15 millimolar, or with methimazole (Sigma, St. Louis, Mo.) dissolved in water at the concentrations of from 0.01 millimolar to 1 millimolar for 24-72 hours. Cell numbers were visually counted using a hemocytometer. For the thymidine incorporation study, cells were deprived of serum for 36 hours and labeled with [methyl-^3H]thymidine at […] per milliliter for 12-24 hours after synchronization. Thymidine incorporation was then measured (Newby and George, 1996, Curr. Opin. Cardiol., 11:547). Effects of propylthiouracil and methimazole on the number of vascular smooth muscle cells and human endothelial cells and thymidine incorporation by vascular smooth muscle cells were each expressed as a percentage of the number and thymidine incorporation of control cells maintained in medium containing 0.1% DMSO as vehicle.

[3] = test system: aortas and femoral arteries of cholesterol-fed rabbits; assay: Atherosclerotic lesions in rabbits on 2% cholesterol diet (Sudan III, intima/media morphometry, immunohistochemistry); assay type: in vivo, New Zealand White rabbits; details: for Extent of sudanophilic areas / atherosclerosis in the aorta: 0.1% propylthiouracil in drinking water, 12 weeks; for Alpha-smooth muscle actin-positive cells (VSMCs) in atheromas / VSMC/macrophage ratio in atherosclerotic lesions: CHO+PTU versus CHO alone
Protocol: At the end of 12 weeks of study, the rabbits were sacrificed. The aortas (from the ascending aorta to the iliac bifurcation) and femoral arteries were removed, rinsed with phosphate-buffered saline (PBS) and stained with Sudan III, or fixed with 4% paraformaldehyde and paraffin-embedded for hematoxylin-eosin staining or immunohistochemical analysis.
For morphometric studies, up to ten cross sections ([…] and 2 millimeters apart from each other) were prepared from each paraffin-embedded segment of the aorta and femoral arteries. The specimens were stained with hematoxylin and eosin. For each cross section of an arterial specimen, the intimal and medial areas were measured.
For immunohistochemical studies, the arterial sections were deparaffinized, rehydrated and blocked in PBS containing 1% bovine serum albumin and 1% goat serum at room temperature for 30 minutes. The sections were then incubated with mouse monoclonal antibodies against smooth muscle cell alpha-actin (clone 1A4, catalogue number M0851, DAKO Corp., Carpenteria, Calif.) and mouse monoclonal antibodies against rabbit macrophages (clone RAM 11, catalogue number M0633, DAKO Corp., Carpenteria, Calif.) at 4° C. overnight. Subsequently, immunohistochemistry was performed using a commercially available peroxidase-labelled streptavidin-biotin kit (DAKO LSAB peroxidase, catalogue number K0675, DAKO, Carpenteria, Calif.) and 3,3′-diaminobenzidine tetrahydrochloride (DAKO liquid DAB+ substrate-chromagen system, catalogue number K3468, DAKO, Carpenteria, Calif.) according to the procedures provide by manufacturer.

[4] = test system: restenosis; details: summary table; cited from earlier work; note: key: '+' represents the ability; a '−' represents the inability of conversion from a non-contracile phenotype to a contractile phenotype in an in vitro condition; A '↓' represents decrease; a '?' represents no data is available
[5] = test system: rat vascular smooth muscle cells; details: summary table, propylthiouracil; non-contractile to contractile phenotype in vitro
[6] = test system: rat vascular smooth muscle cells; assay: [methyl-3H]thymidine incorporation into VSMCs; assay type: cell-based
Protocol: as §1, §2

[7] = test system: rat vascular smooth muscle cells; assay: Vascular smooth muscle cell proliferation (cell number); assay type: cell-based; details: for Cell number of VSMCs: 24 hours
Protocol: as §1, §2

[8] = summary table; cited from earlier work
[9] = propylthiouracil-treated groups
Throughout, for Anti-inflammation: key: '+' represents the ability; a '−' represents the inability of conversion from a non-contracile phenotype to a contractile phenotype in an in vitro condition; A '↓' represents decrease; a '?' represents no data is available.

SMILES: CCCc1cc(=O)[nH]c(=S)[nH]1 [Propylthiouracil, 6-n-propyl-2-thiouracil]
- Serum (milligrams percent) at sacrifice ([1]; 2% cholesterol diet): 43 ± 33 milligrams percent
- Serum CHO at sacrifice ([1]; 2% cholesterol diet): 1965 ± 156 milligrams percent
- Serum HDL at sacrifice ([1]; 2% cholesterol diet): 67 ± 24 milligrams percent
- Serum LDL at sacrifice ([1]; 2% cholesterol diet): 1856 ± 152 milligrams percent
- Serum TG at sacrifice ([1]; 2% cholesterol diet): 213 ± 167 milligrams percent
- Weight at sacrifice ([1]; 2% cholesterol diet): 3.06 ± 0.17 kilograms
- Chow consumption ([1]; 2% cholesterol diet): 123 ± 18 grams per day
- Water consumption ([1]; 2% cholesterol diet): 201 ± 41 milliliters per day
- Body weight at the end of treatment ([1]; PTU and CHO+PTU groups, despite decreased water and chow intake): did not have a reduction in the body weight
- Serum thyroxine (T4) ([1]; after 4 weeks of treatment): decreased-to unmeasurable levels
- Serum triiodothyronine (T3) ([1]; after 4 weeks of treatment): decreased-to unmeasurable levels; also recorded: decreased to unmeasurable levels
- Thyrotropin (TSH) level ([1]; hypothyroid groups): increase
- Arterial pressures and heart rates ([1]; hypothyroid propylthiouracil-treated groups): did not have their arterial pressures and heart rates altered
- Serum (milligrams percent) at sacrifice ([1]; normal chow): 32 ± 8 milligrams percent
- Serum CHO at sacrifice ([1]; normal chow): 154 ± 22 milligrams percent
- Serum HDL at sacrifice ([1]; normal chow): 43 ± 30 milligrams percent
- Serum LDL at sacrifice ([1]; normal chow): 82 ± 32 milligrams percent
- Serum TG at sacrifice ([1]; normal chow): 175 ± 50 milligrams percent
- Weight at sacrifice ([1]; normal chow): 3.08 ± 0.17 kilograms
- Chow consumption ([1]; normal chow): 113 ± 13 grams per day
- Water consumption ([1]; normal chow): 196 ± 17 milliliters per day
- Serum cholesterol, triglyceride, LDL, and VLDL levels compared with the control group ([1]; normal chow, propylthiouracil only (Group 2)): slight increase
- Agranulocytosis [1, 9]: did not occur
- Blood counts [1, 9]: remained essentially unchanged
- Concentration at which significant inhibition of growth of vascular endothelial cells was observed ([2]; 24 hours): ≥ 10 millimolar
- Growth of vascular endothelial cells ([2]; 24 hours, concentrations of up to 7.5 millimolar): did not significantly inhibit
- Difference in inhibitory effect, vascular endothelial cells less than vascular smooth muscle cells ([2]; FIG. 7): 20-30%
- IC50 ([2]; Homo sapiens, Endothelial cell, 24 h, read-out: IC50 for endothelial cells (proliferation)): 12 mM
- Endothelial cellular function ([2]; summary table, propylthiouracil): +
- Extent of sudanophilic areas / atherosclerosis in the aorta ([3]; 2% cholesterol diet): markedly less; also recorded: significantly decreased
- Extent of sudanophilic areas / atherosclerosis in the aorta ([3]; 2% cholesterol diet, listed as PTU): markedly less
- Alpha-smooth muscle actin-positive cells (VSMCs) in atheromas [3]: significantly fewer
- VSMC/macrophage ratio in atherosclerotic lesions [3]: reduce
- Alpha-smooth muscle actin-positive cells (VSMCs) in atheromas ([3]; listed as PTU): markedly fewer
- VSMC/macrophage ratio in atherosclerotic lesions ([3]; listed as PTU): decreased
- Intima/media area ratio ([3]; ascending aorta, aortic arch and femoral arteries, 2% cholesterol diet): deceased significantly
- Visible atherosclerotic lesion in aortas and arteries ([3]; normal chow, Groups 2 and 3, data not shown): no visible atherosclerotic lesion
- TUNEL-positive cells in aortas of rabbits ([3]; propylthiouracil and cholesterol/propylthiouracil treatment groups): absent
- Effect on animal models of restenosis, Rat [4]: +
- Phenotype change [5]: +
- Thymidine incorporation into VSMCs ([6]; 0.05 millimolar): 99 % of control
- Thymidine incorporation into VSMCs ([6]; 0.5 millimolar): 93 % of control
- Thymidine incorporation into VSMCs ([6]; 2.5 millimolar): 75 % of control
- Thymidine incorporation into VSMCs ([6]; 5 millimolar): 38 % of control
- Inhibition of thymidine incorporation into VSMCs ([6]; concentration-dependent): significantly inhibited
- Cell number of VSMCs ([7]; 0.05 millimolar): 103 % of control
- Proliferation of VSMCs at low concentration ([7]; 0.05 millimolar, 24 hours treatment): not inhibited
- Proliferation of VSMCs at low concentration, long-term ([7]; 0.05 millimolar, exposed for more than 2 days): antiproliferative effect was indeed observed
- Cell number of VSMCs ([7]; 0.5 millimolar): 103 % of control
- Cell number of VSMCs ([7]; 2.5 millimolar): 76 % of control
- Cell number of VSMCs ([7]; 5 millimolar): 57 % of control
- IC50 ([7]; Rattus norvegicus, VSMC, 24 h, read-out: IC50 for VSMCs (proliferation)): 5.8 mM
- Inhibition of growth/proliferation of VSMCs ([7]; concentration-dependent, PTU 0.05-5 millimolar, methimazole 0.01-1 millimolar): significantly inhibited
- Anti-inflammation [8]: +
